Data from patent US20060014717A1, “Therapeutic compositions for use in prophylaxis or treatment of diarrheas” (priority 2002, published 2006).

Legend:
[1] = tested on: an ETEC and an EPEC strain; details: cited from earlier work
[2] = tested on: H. mustelae 25715; assay: Binding of 35S-labeled Helicobacter species to glycosphingolipids on thin-layer chromatograms; parameters: species or system Helicobacter mustelae; key: + denotes a significant darkening on the autoradiogram when 2 μg (or 40 μg in the case of the last sample) was applied to TLC plates; − denotes no binding; details: 2 μg (40 μg for the glycosphingolipid fraction) on TLC plates
Description: (§1) Gastric species examined in the present study included, Helicobacter mustelae ferret isolates from the National Collection of Type Cultures (NCTC) and the Culture Collection of the University of Gothenberg (CCUG), NCTC 12198/CCUG 25175 (equivalent strains from different sources tested), CCUG 23950 and CCUG 23951, Helicobacterfelis CCUG 28539 from a cat, in addition, H. pylori strains CCUG 17874, CCUG 17875 and a clinical isolate 119/95 were used. Enterohepatic helicobacters of animal origin were purchased from the CCUG including, Helicobacter canes CCUG 33835, Helicobacter bilis CCUG 38995, Helicobacter hepaticus CCUG 33637, and Helicobacterfennelliae (CCUG 18820).
(§2) Binding of Helicobacter spp. to glycosphingolipids, both acid and non-acidfractions. Glycosphingolipids were isolated by standard procedures (Karlsson, 1987). The identity of the purified glycosphingolipids was confirmed by mass spectrometry (Samuelsson et al., 1990), proton NMR spectroscopy (Koerner et al., 1983) and degradation studies (Stellner et al., 1973; Yang and Hakomori, 1971).
(§3) Mixtures of glycosphingolipids (40 μg/lane) or pure compounds (2 μg/lane) were subsequently separated using thin-layer chromatography (TLC) on glass- or aluminum-backed silica gel 60 HPTLC plates (Merck, Darmstadt, Germany), with chloroform/methanot/water (60:35:8, by volume) as solvent system. Chemical detection was accomplished by anisaldehyde (Waldi, 1962). Helicobacter spp. were subjected to ^35S-labeling (Angstrom et al., 1998) and suspended in PBS (10^8 CFU/ml) with a specific activity of approximately 1 cpm per 100 organisms. Binding of the labeled-bacteria to glycosphingolipids separated by TLC was achieved using a bacterial-overlay technique coupled with autoradiography detection using XAR-5 X-ray films (Eastman Kodak, Rochester, N.Y.) as previously described (Hansson et al., 1985).

[3] = tested on: H. mustelae CCUG 23950 & 23951; assay: as above; parameters: species or system Helicobacter mustelae; key: + denotes a significant darkening on the autoradiogram when 2 μg (or 40 μg in the case of the last sample) was applied to TLC plates; − denotes no binding; details: 2 μg (40 μg for the glycosphingolipid fraction) on TLC plates
Description: as §1, §2, §3

[4] = tested on: H. bilis CCUG 38995; assay: as above; parameters: species or system Helicobacter bilis; key: + denotes a significant darkening on the autoradiogram when 2 μg (or 40 μg in the case of the last sample) was applied to TLC plates; − denotes no binding; details: 2 μg (40 μg for the glycosphingolipid fraction) on TLC plates
Description: as §1, §2, §3

[5] = tested on: H. felis CCUG 28539; assay: as above; parameters: species or system Helicobacter felis; key: + denotes a significant darkening on the autoradiogram when 2 μg (or 40 μg in the case of the last sample) was applied to TLC plates; − denotes no binding; details: 2 μg (40 μg for the glycosphingolipid fraction) on TLC plates
Description: as §1, §2, §3

[6] = tested on: H. canis CCUG 33835; assay: as above; parameters: species or system Helicobacter canis; key: + denotes a significant darkening on the autoradiogram when 2 μg (or 40 μg in the case of the last sample) was applied to TLC plates; − denotes no binding; details: 2 μg (40 μg for the glycosphingolipid fraction) on TLC plates
Description: as §1, §2, §3

[7] = tested on: gastric and enterohepatic Helicobacter spp.; assay: Binding of Helicobacter spp. to glycosphingolipids (statements for several species)
Description: as §1, §2, §3

[8] = tested on: E. coli EIEC CCUG 38092; assay: Chromatogram binding assay, binding specificities of type strains; parameters: species or system Escherichia coli; details: prolonged sub-culture, 4 μg per lane
Protocol: Culture Conditions and Labeling—The E. coli strains were cultured on Luria-agar with the addition of 10 μl ^35S-methionine (400 tici; Amersham Pharmacia Biotech, U.K.) at 37° C. for 12 h. The bacteria were harvested by scraping, washed three times with phosphate-buffered saline (PBS), pH 7.3, and thereafter resuspended in PBS (with or without 1% mannose (w/v)) to 1×10^8 CFU/ml. The specific activities of the suspensions were approximately 1 cpm per 100 bacteria.
Thin-Layer Chromatography—Thin-layer chromatography of glycosphingolipids was performed on glass- or aluminum-backed silica gel 60 HPTLC plates (Merck, Darmstadt, Germany), using chloroform/methanol/water 60:35:8 (by volume) as solvent system. Chemical detection was done with anisaldehyde (6).
(§4) Glycosphingolipid Binding Assays—Binding of ^35S-labeled bacteria to glycosphingolipids on thin-layer chromatograms was done as reported (7). Dried chromatograms were dipped for 1 min in diethylether/n-hexane (1:5, by volume) containing 0.5% (w/v) polyisobutylmethacrylate (Aldrich Chem. Comp. Inc., Milwaukee, Wis.). After drying, the chromatograms were soaked in PBS containing 2% bovine serum albumin (w/v), 0.1% NaN3 (w/v) and 0.1% Tween 20 (by volume) for 2 h at room temperature. The chromatograms were subsequentely covered with radiolabeled bacteria diluted in PBS (2-5×10^6 cpm/ml). Incubation was done for 2 h at room temperature, followed by repeated washings with PBS. The chromatograms were thereafter autoradiographed using XAR-5 X-ray films (Eastman Kodak, Rochester, N.Y.) for 12 h. Autoradiograms were replicated using a CCD camera (Dage-MTI, Inc., Michigan City, Ind.), and analysis of the images was performed using the public domain NIH Image program (developed at the U.S. National Institutes of Health, and available at http://rsb.info.nih.eov/nih-imaee/).
However, several wild type diarrheagenic E. coli strains bind to sialic acid (see e.g. FIG. 6 and FIG. 3). […]

[9] = tested on: H. pylori CCUG 17875; assay: Binding of 35S-labeled Helicobacter species to glycosphingolipids on thin-layer chromatograms; parameters: species or system Helicobacter pylori; key: + denotes a significant darkening on the autoradiogram when 2 μg (or 40 μg in the case of the last sample) was applied to TLC plates; − denotes no binding; details: 2 μg (40 μg for the glycosphingolipid fraction) on TLC plates
Description: as §1, §2, §3

[10] = tested on: H. pylori CCUG 17874; assay: as above; parameters: species or system Helicobacter pylori; key: + denotes a significant darkening on the autoradiogram when 2 μg (or 40 μg in the case of the last sample) was applied to TLC plates; − denotes no binding; details: 2 μg (40 μg for the glycosphingolipid fraction) on TLC plates
Description: as §1, §2, §3

[11] = tested on: H. hepaticus CCUG 33637; assay: as above; parameters: species or system Helicobacter hepaticus; key: + denotes a significant darkening on the autoradiogram when 2 μg (or 40 μg in the case of the last sample) was applied to TLC plates; − denotes no binding; details: 2 μg (40 μg for the glycosphingolipid fraction) on TLC plates
Description: as §1, §2, §3

[12] = tested on: EPEC strain; details: listed in decreasing order of activity; cited from earlier work
[13] = tested on: diarrheagenic E. coli; assay: Comparison of binding to dilution series of sialyl-neolactotetraosylceramide variants; parameters: species or system Escherichia coli; details: dilution series of glycolipids
Protocol: as §4
To dissect the sialic acid binding preferences of diarrheagenic E. coli, the binding of bacteria to variants of sialyl-neoleactotetraosylceramide was compared. […] The comparison was performed by using dilution series of glycolipids and comparing the disappearence of the bindings when the amounts of glycolipids were reduced.

[14] = both gastric and enterohepatic Helicobacter spp. tested

Compound	Inhibition of binding of an ETEC and an EPEC strain to Caco-2 cells [1]	Binding of glycosphingolipids to H.mustelae 25715 [2]	Binding of glycosphingolipids to H.mustelae 23950 & 23951 [3]	Binding of glycosphingolipids to H.bilis 38995 [4]	Binding of glycosphingolipids to H.felis 28539 [5]	Binding of glycosphingolipids to H.canis 33835 [6]	Binding of glycosphingolipids to H.pylori 17875 [9]	Binding of glycosphingolipids to H.pylori 17874 [10]	Binding of glycosphingolipids to H.hepaticus 33637 [11]	also measured
CC(=O)N[C@H]1[C@H]([C@H](O)[C@H](O)CO)OC(O)(C(=O)O)C[C@@H]1O (stereo partly drawn) [N-acetylneuraminic acid]	negative	–	–	–	–	–	–	–	–	–
Galα3Galβ4Glcβ1Cer [No. 7]	–	+	+	+	+	+	+	+	+	Binding of Helicobacter spp. to glycosphingolipid, in words [7, 14]: capable of binding; Binding of E. coli CCUG 38092 to pure glycosphingolipids after sub-culture ([8]; listed as isoglobotriaosylceramide): Selective loss of binding
Galβ3GalNAcβ4(NeuAcα3)Galβ4Glcβ1Cer [No. 29]	inhibiting	–	–	–	–	–	–	–	–	–
Galβ3GalNAcβ4Galβ4Glcβ1Cer [No. 11]	–	+	+	+	+	+	+	+	+	Binding of an EPEC strain to commercial glycolipids [12]: observed to bind; Binding of Helicobacter spp. to glycosphingolipid, in words ([7]; H. felis, H. canis, H. hepaticus and H. bilis): binding was demonstrated; Binding of E. coli CCUG 38092 to pure glycosphingolipids after sub-culture [8]: remain
Galβ4Glcβ1Cer [No. 5]	–	+	+	+	+	+	+	+	+	Binding of Helicobacter spp. to glycosphingolipid, in words [7, 14]: capable of binding
NeuAcα3Galβ4GlcNAcβ3Galβ4Glcβ1Cer [No. 31]	–	–	–	–	–	–	–	–	–	Relative binding affinity, order by disappearance of binding in dilution series [13]: finally
NeuGcα3Galβ4GlcNAcβ3Galβ4Glcβ1Cer [No. 33]	–	–	–	–	–	–	–	–	–	Relative binding affinity, order by disappearance of binding in dilution series [13]: highest affinity
lactosylceramide	negative	–	–	–	–	–	–	–	–	Binding of an EPEC strain to commercial glycolipids [12]: negative
